Measured values reported in US11845746B1 (priority 2023, dated 2023).

Structure (SMILES) | melting point
CCOC(=O)c1cc(C(=O)c2ccc(F)cc2)n2c1ccc1cc(C)ccc12 | 163 to 164 °C
CCOC(=O)c1cc(C(=O)c2ccccc2)n2c1ccc1cc(C)ccc12 | 139 to 140 °C
CCOC(=O)c1cc(C(=O)c2ccc(C)cc2)n2c1ccc1cc(C)ccc12 | 155 to 156 °C

Further lines, results first:

melting point | Structure (SMILES)
174 to 175 °C | CCOC(=O)c1cc(C(=O)c2ccccc2[N+](=O)[O-])n2c1ccc1cc(C)ccc12 [Compound 4d, Ethyl 7-methyl-1-(2-nitrobenzoyl)pyrrolo[1,2-a]quinoline-3-carboxylate]
223 to 224 °C | CCOC(=O)c1cc(C(=O)c2cc(C(F)(F)F)cc(C(F)(F)F)c2)n2c1ccc1cc(C)ccc12 [Compound 4f, Ethyl 1-(3,5-bis(trifluoromethyl)benzoyl)-7-methylpyrrolo[1,2-a]quinoline-3-carboxylate]
180 to 181 °C | CCOC(=O)c1cc(C(=O)c2ccc(Br)cc2)n2c1ccc1cc(C)ccc12 [Compound 4e, Ethyl 1-(4-bromobenzoyl)-7-methylpyrrolo[1,2-a]quinoline-3-carboxylate]
